Results reported in patent US20240299393A1, “SMALL MOLECULE DISRUPTORS OF PROTEIN INTERACTIONS IN HISTONE DEACETYLASE COMPLEXES” (Dana-Farber Cancer Institute, Inc., priority 2021, published 2024).
“Also recorded” adds a separate entry of the source.

Tests used:
[1] = biological target: T1, human SIN3B PAH2 domain (Homo sapiens, UniProt O75182); experiment: Ligand-detected NMR, human SIN3B PAH2; format: binding, H. sapiens; details: 300 μM compound, 10 μM protein
T1 construct: Residues 155-241 of human SIN3B (PAH2 domain) were inserted into the pMALC2XE vector for NMR experiments; made in house; host or cells: E. coli BL21 (DE3)
Procedure: Ligand-detected NMR experiments: all results were acquired using a 3 mm tube at 25° C. on a Bruker 600 MHz Avance II system equipped with a CPPTCI cryoprobe (Bruker BioSpin Corp.). In all experiments, the concentration of E6R was fixed at 300 μM (from a stock of 25 mM in deuterated DMSO) and the concentration of the protein at 10 μM. The volume of deuterated DMSO was kept constant (1.5%) in all tested samples. Right before the experiments, the compound and protein were diluted in 1×PBS containing 0.1% deuterated dithiothreitol (DTT) to a total volume of 200 μL. Samples were diluted by 5% with D2O for magnetic field lock. Spectra were acquired for ligand only, protein only, and ligand+protein. […] STD experiments [Mayer et al 2001] were acquired with 160 scans, with protein irradiation applied for 3 s at 0 ppm and −20 ppm for the on and off resonance experiments, respectively. On and off resonance spectra were collected and stored separately. One-dimensional CPMG-R2 edited experiments [Hajduk et al 1997] were collected for samples with and without proteins using seven CPMG delays (0, 25, 50, 100, 300, 500, and 800 ms) with four scans per delay. Proton spectra used to measure DLB and chemical shift perturbations in the absence and presence of the proteins were recorded with 16 scans using a recycle delay of 3 s. […]

[2] = system: Rpd3L HDAC binary PPIs other than Sin3-Ume6; experiment: GPCA binary PPI inhibition, other Rpd3L HDAC PPIs; format: cell-based, S. cerevisiae; details: 10 μM
Procedure: (§1) GPCA (N1-N2 version) was implemented as reported in [Choi et al 2019]. HEK293T cells were seeded at 6×10^4 cells per well in 96-well, flat-bottom, cell culture microplates (Greiner Bio-One, #655083), and cultured in Dulbecco's modified Eagle's medium (DMEM) supplemented with 10% fetal calf serum at 37° C. and 5% CO2. Twenty-four hours later, cells were transfected with 100 ng of each GPCA plasmid (GPCA-N1 and GPCA-N2) using linear polyethylenimine (PEI) to co-express the protein pairs fused with complementary luciferase fragments, Luc1 and Luc2. The DNA/PEI ratio used for transfection was 1:3 (mass:mass). […] Luminescence was measured by auto-injecting 50 μL Renilla luciferase substrate (Renilla Luciferase Assay system, catalog No. E2820, Promega) per well and integrating light output for 4 s using a TriStar luminometer (Berthold).
(§2) The ability of compounds to inhibit binary PPIs in the Sin3/Rpd3L HDAC complex was tested by GPCA in a high-throughput screening format. […] The luminescence signal for each PPI was measured by averaging the different DMSO replicates, and calculating the standard deviation of DMSO values for each interaction. […] For each interaction, a particular compound was scored as a PPI inhibitor when it decreased its luminescence signal by at least three standard deviations compared to the corresponding averaged DMSO value. […]

[3] = biological target: T2, Sin3-Ume6 (Saccharomyces cerevisiae, UniProt P22579); experiment: GPCA binary PPI inhibition in HEK293T cells, Sin3-Ume6; format: cell-based, human HEK293T cells
T2 construct: ORFs corresponding to full-length subunits of the Rpd3L HDAC complex were PCR-amplified from yeast genomic DNA; expressed in transfected cells; host or cells: HEK293T
Procedure: as §1, §2

T2 sequence (P22579 whole entry): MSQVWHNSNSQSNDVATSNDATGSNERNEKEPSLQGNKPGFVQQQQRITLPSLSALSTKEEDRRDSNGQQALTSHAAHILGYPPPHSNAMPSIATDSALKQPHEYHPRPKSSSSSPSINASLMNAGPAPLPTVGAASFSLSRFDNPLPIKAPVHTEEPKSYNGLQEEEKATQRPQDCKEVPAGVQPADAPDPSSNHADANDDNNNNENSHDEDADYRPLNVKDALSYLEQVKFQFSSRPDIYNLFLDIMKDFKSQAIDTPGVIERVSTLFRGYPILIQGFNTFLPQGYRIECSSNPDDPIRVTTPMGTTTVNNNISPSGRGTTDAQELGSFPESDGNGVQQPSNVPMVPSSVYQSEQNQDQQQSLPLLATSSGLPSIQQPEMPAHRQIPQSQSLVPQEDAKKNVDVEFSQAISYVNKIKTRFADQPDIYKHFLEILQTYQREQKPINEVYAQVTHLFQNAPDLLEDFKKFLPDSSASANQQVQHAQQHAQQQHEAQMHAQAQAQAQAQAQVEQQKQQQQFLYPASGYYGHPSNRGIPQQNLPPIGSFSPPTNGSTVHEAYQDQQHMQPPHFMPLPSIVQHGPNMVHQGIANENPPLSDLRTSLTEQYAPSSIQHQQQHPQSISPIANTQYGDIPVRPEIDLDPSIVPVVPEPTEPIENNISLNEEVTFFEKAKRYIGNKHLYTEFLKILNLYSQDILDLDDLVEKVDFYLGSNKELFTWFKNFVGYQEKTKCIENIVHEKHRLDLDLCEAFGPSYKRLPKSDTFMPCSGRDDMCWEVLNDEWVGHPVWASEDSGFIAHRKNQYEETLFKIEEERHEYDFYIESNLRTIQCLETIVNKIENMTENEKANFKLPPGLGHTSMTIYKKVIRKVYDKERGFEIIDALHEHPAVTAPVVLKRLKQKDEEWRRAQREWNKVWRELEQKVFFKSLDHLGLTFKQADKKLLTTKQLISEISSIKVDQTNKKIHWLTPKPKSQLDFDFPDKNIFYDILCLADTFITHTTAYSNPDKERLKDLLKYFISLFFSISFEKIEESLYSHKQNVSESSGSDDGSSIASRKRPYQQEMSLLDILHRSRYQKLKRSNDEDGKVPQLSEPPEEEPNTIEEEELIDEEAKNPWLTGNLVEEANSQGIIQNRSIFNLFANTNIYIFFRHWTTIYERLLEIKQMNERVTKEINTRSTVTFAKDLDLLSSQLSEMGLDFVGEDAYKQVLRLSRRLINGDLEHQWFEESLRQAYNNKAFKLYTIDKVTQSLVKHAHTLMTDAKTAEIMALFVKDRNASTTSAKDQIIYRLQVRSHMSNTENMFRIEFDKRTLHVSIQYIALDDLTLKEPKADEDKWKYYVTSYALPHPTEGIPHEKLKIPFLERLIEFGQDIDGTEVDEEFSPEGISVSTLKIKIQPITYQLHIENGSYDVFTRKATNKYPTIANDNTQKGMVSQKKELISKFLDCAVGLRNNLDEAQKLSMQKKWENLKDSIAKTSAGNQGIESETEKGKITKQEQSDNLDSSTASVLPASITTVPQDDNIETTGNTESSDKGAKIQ
T1 sequence (O75182 155-241): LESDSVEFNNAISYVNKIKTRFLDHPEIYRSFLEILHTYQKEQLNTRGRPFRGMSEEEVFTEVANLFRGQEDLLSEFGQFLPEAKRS

SMILES: C[C@@H](NC(=O)c1c(O)n2ccccc2nc1=O)c1ccccc1 [E6R, 4-hydroxy-2-oxo-N—((R)-1-phenylethyl)-3,4-dihydro-2H-pyrido[, 2-a]pyrimidine-3-carboxamide]
- binding to human SIN3B PAH2 by NMR [1]: could bind; also recorded: virtually identical to those of yeast Sin3 PAH2

SMILES: CC(NC(=O)c1c(O)n2ccccc2nc1=O)c1ccccc1 (racemic) [E6]
- effect on all other PPIs [2]: unperturbed
- inhibition of Sin3-Ume6 PPI (fold change over DMSO) ([3]; 10 μM, 1 h): ~2.5 fold
- inhibition of Sin3-Ume6 PPI ([3]; GPCA): selectively inhibit
